Laboratory results reported in patent EP0603240B1, “SAFENING HERBICIDAL PYRAZOLYLSULFONYLUREAS” (priority 1991, dated 1993).

How the values were obtained:
Assay type in all cases: in vivo
[1] = system: corn; assay: Example 7, Procedure II: Herbicide No. 1 + metolachlor (No. 12) with antidotes
Procedure, shortened: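 Herbicide plus antidote, applied in acetone, mixed into silt loam top soil used to cover corn seed beds, with untreated and herbicide-only controls. After incorporation, containers got overhead irrigation equal to 0.6 cm rainfall, then sub-irrigation in greenhouse. Percent injury scored; antidote efficacy is injury difference; duplicate averages.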

[2] = system: barnyardgrass (Echinochloa crusgalli); assay: as above
Procedure, shortened: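 Herbicide and antidote in acetone were mixed into silt loam soil used to cover seeded beds, followed by 0.6 cm overhead irrigation, then sub-irrigation in the greenhouse. Percent injury was scored against herbicide-alone and untreated controls, averaged over duplicates. Herbicide No. 1 was combined with metolachlor.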

[3] = system: barnyardgrass (Echinochloa crusgalli); assay: Example 18, Procedure II: Herbicide No. 1 + ERADICANE (EPTC + R-25788) with auxiliary antidotes
Experimental: (§1) Containers were filled and compacted with a fumigated silt loam top soil to a depth of about 1.3 cm from the top of the container. A first container was designated as an untreated control, a second container was designated as a herbicide control, and a third container was designated as a herbicide + antidote test container. Each of the containers was seeded with a crop species. A measured amount of herbicide dispersed or dissolved in acetone was applied to a measured quantity of soil. To this same quantity of soil treated with herbicide, there was added a measured amount of antidote dispersed or dissolved in acetone. The quantity of soil treated with the herbicide and antidote was thoroughly mixed to incorporate the herbicide and antidote in the soil uniformly. The seed bed in the third container of soil was covered with the soil treated with the herbicide and antidote and the container was leveled. For each test series, the seed beds of the first and second containers were likewise covered by soil layers. the cover layer of the first container was not treated with herbicide or antidote.
(§2) The containers were then placed on a bench in a greenhouse and sub-irrigated as required for the duration of the test. […] Plant response is measured in terms of percent injury. Antidote efficacy is indicated as the difference in plant injury by the herbicide(s) without the antidote and with the antidote.
(§3) This procedure is the same as Procedure I, but modified in the manner that after incorporation of the chemicals (herbicide and antidote) the containers with the covered seedbed were treated with an initial overhead irrigation equivalent to 0.6 cm rainfall, then subsequently sub-irrigated as required on greenhouse benches.
(§4) In the series of greenhouse tests described below, for routine screening purposes the herbicide/antidote compositions were tested in crop/weed combinations involving corn as the crop and either or both of the weeds barnyardgrass (Echinochloa crusgalli), a monocotyledonous weed, and velvetleaf (Abutilon theophrasti), a dicotyledonous weed. In the tables below, these weeds are indicated by the symbols "BYG" and "VL", respectively.
(§5) In the test reported in this example, the herbicidal composition was similar to that used in Example 16 in that Herbicide No. 1 was combined with EPTC (Herbicide No. 4) as a co-herbicide and the antidotes included Nos. 1, 2, 7, 13 and 15. However, in this test the EPTC was introduced as a formulation of ERADICANE (EPTC + the antidote R-25788, i.e., Antidote No. 1) at an application rate of 8.96 kg/ha. Thus, in this test two antidotes were present, viz. R-25788 and one of the auxilliary antidotes, No. 2, 13 and 15.
(§6) Test procedures were those of Procedure II above.

[4] = system: velvetleaf (Abutilon theophrasti); assay: as above
Experimental: as §1, §2, §3, §4, §5, §6

[5] = system: corn; assay: Example 22: retest of Example 21 at reduced greenhouse temperatures; settings: Table 22
Experimental: as §1, §2, §3
In this example, tests were conducted as in the preceding Examples 18-20, except here the co-herbicidal component was SUTAN® PLUS, a commercial product comprising as the active herbicidal ingredient the compound butylate (Herbicide No. 10) and an antidote […] (Antidote No. 1). Again, the antidotal compounds herein were Nos. 1, 2, 7, 13 and 15. Procedure II was used.
The experiments in this example were designed as a retest of those described in Example 21 in view of the uncharacteristically poor corn safety and weed control, believed to have resulted from unseasonably high temperatures in the greenhouse. Accordingly, temperatures were reduced for these tests.

[6] = system: Giant foxtail (Setaria fabergi); assay: Example 23, Procedure II: Antidote Nos. 15 and 17-21 against Herbicide No. 1, 13 days after application
Experimental: as §1, §2, §3
(§7) In other greenhouse tests, using Procedure II described above, the safening efficacy of Antidote Nos. 15 and 17-21 was evaluated against Herbicide No. 1 in corn in the presence of Giant foxtail (Setaria fabergi) and Velvetleaf (Abutilon theophrasti) as representative annual monocotyledonous and dicotyledonous weeds, respectively.
(§8) Test results are shown in Tables 23A and 23B wherein the indicated plant inhibition represents the average of duplicate replications, with observations being made thirteen (13) days after application of the chemicals. Giant foxtail and Velvetleaf are represented by the symbols "GFT" and "VL", respectively. The data in Table 23A show the test results using the antidotes at 2.24 kg/ha, whereas in Table 23B, the antidotal rate was reduced to 0.56 kg/ha.

[7] = system: corn; assay: as above; settings: 13 days after application
Experimental: as §1, §2, §3, §7, §8

[8] = system: velvetleaf (Abutilon theophrasti); assay: as above
Experimental: as §1, §2, §3, §7, §8

[9] = Herbicide No.1 0.14 + No.12 3.36 kg/ha + antidote 2.24 kg/ha
[10] = Herbicide No.1 0.14 + No.12 3.36 kg/ha + antidote 8.96 kg/ha
[11] = Herbicide No.1 0.56 + No.12 3.36 kg/ha + antidote 2.24 kg/ha
[12] = Herbicide No.1 0.56 + No.12 3.36 kg/ha + antidote 8.96 kg/ha
[13] = Herbicide No.1 0.56 kg/ha + ERADICANE 8.96 kg/ha, antidote 2.24 kg/ha
[14] = Herbicide No.1 0.56 kg/ha + ERADICANE 8.96 kg/ha, antidote 8.96 kg/ha
[15] = Herbicide No.1 1.12 kg/ha + ERADICANE 8.96 kg/ha, antidote 2.24 kg/ha
[16] = Herbicide No.1 1.12 kg/ha + ERADICANE 8.96 kg/ha, antidote 8.96 kg/ha
[17] = Herbicide No.1 0.56 Kg/ha + SUTAN + 8.96 Kg/ha + antidote 2.24 Kg/ha
[18] = Herbicide No.1 0.56 Kg/ha + SUTAN + 8.96 Kg/ha + antidote 8.96 Kg/ha
[19] = Herbicide No.1 1.12 Kg/ha + SUTAN + 8.96 Kg/ha + antidote 2.24 Kg/ha
[20] = Herbicide No.1 1.12 Kg/ha + SUTAN + 8.96 Kg/ha + antidote 8.96 Kg/ha
[21] = Table 23A, Herb. No. 1 0.14 Kg/Ha + antidote 2.24 Kg/ha
[22] = Table 23A, Herb. No. 1 0.28 Kg/Ha + antidote 2.24 Kg/ha
[23] = Table 23A, Herb. No. 1 0.56 Kg/Ha + antidote 2.24 Kg/ha
[24] = Table 23A, Herb. No. 1 1.12 Kg/Ha + antidote 2.24 Kg/ha
[25] = Table 23B, Herb. No. 1 0.14 Kg/Ha + antidote 0.56 Kg/ha
[26] = Table 23B, Herb. No. 1 0.28 Kg/Ha + antidote 0.56 Kg/ha
[27] = Table 23B, Herb. No. 1 0.56 Kg/Ha + antidote 0.56 Kg/ha
[28] = Table 23B, Herb. No. 1 1.12 Kg/Ha + antidote 0.56 Kg/ha

## CC1(C(Cl)Cl)OCCO1 [compound 13]
[1]; [9]
  % Injury Corn: 0%
[1]; [10]
  % Injury Corn: 0%
[1]; [11]
  % Injury Corn: 10%
[1]; [12]
  % Injury Corn: 10%
[2]; [9]
  % Injury BYG: 100%
[2]; [10]
  % Injury BYG: 100%
[2]; [11]
  % Injury BYG: 100%
[2]; [12]
  % Injury BYG: 100%
[3]; [13]
  % Injury BYG: 85%
[3]; [14]
  % Injury BYG: 85%
[3]; [15]
  % Injury BYG: 85%
[3]; [16]
  % Injury BYG: 90%
[4]; [13]
  % Injury VL: 80%
[4]; [14]
  % Injury VL: 80%
[4]; [15]
  % Injury VL: 75%
[4]; [16]
  % Injury VL: 75%
[5]; [17]
  % Injury Corn: 70%
[5]; [18]
  % Injury Corn: 60%
[5]; [19]
  % Injury Corn: 75%
[5]; [20]
  % Injury Corn: 60%

## CC1(C)OC(c2ccco2)CN1C(=O)C(Cl)Cl (stereo not shown) [compound 15]
[1]; [9]
  % Injury Corn: 0%
[1]; [10]
  % Injury Corn: 10%
[1]; [11]
  % Injury Corn: 15%
[1]; [12]
  % Injury Corn: 15%
[2]; [9]
  % Injury BYG: 100%
[2]; [10]
  % Injury BYG: 100%
[2]; [11]
  % Injury BYG: 100%
[2]; [12]
  % Injury BYG: 100%
[3]; [13]
  % Injury BYG: 90%
[3]; [14]
  % Injury BYG: 90%
[3]; [15]
  % Injury BYG: 93%
[3]; [16]
  % Injury BYG: 85%
[4]; [13]
  % Injury VL: 80%
[4]; [14]
  % Injury VL: 85%
[4]; [15]
  % Injury VL: 80%
[4]; [16]
  % Injury VL: 65%
[5]; [17]
  % Injury Corn: 45%
[5]; [18]
  % Injury Corn: 55%
[5]; [19]
  % Injury Corn: 60%
[5]; [20]
  % Injury Corn: 45%
[6]; [21]
  % Inhibition GFT: 20%
[6]; [22]
  % Inhibition GFT: 30%
[6]; [23]
  % Inhibition GFT: 65%
[6]; [24]
  % Inhibition GFT: 75%
[6]; [25]
  % Inhibition GFT: 20%
[6]; [26]
  % Inhibition GFT: 30%
[6]; [27]
  % Inhibition GFT: 60%
[6]; [28]
  % Inhibition GFT: 70%
[7]; [21]
  % Inhibition Corn: 5%
[7]; [22]
  % Inhibition Corn: 0%
[7]; [23]
  % Inhibition Corn: 5%
[7]; [24]
  % Inhibition Corn: 20%
[7]; [25]
  % Inhibition Corn: 0%
[7]; [26]
  % Inhibition Corn: 0%
[7]; [27]
  % Inhibition Corn: 5%
[7]; [28]
  % Inhibition Corn: 10%
[8]; [21]
  % Inhibition VL: 90%
[8]; [22]
  % Inhibition VL: 90%
[8]; [23]
  % Inhibition VL: 90%
[8]; [24]
  % Inhibition VL: 98%
[8]; [25]
  % Inhibition VL: 85%
[8]; [26]
  % Inhibition VL: 90%
[8]; [27]
  % Inhibition VL: 95%
[8]; [28]
  % Inhibition VL: 95%
